Reference: patent US20220142884A1, “TREATMENT OF AGING OR UV-DAMAGED SKIN” (Echo Pharmaceuticals B.V., priority 2019, published 2022)

Tests used:
[1] = system: UV-B induced secretion of interleukin 8 (IL-8); assay: UV-B induced secretion of IL-8 in HaCaT cells (ELISA); assay type: cell-based, Human; details: UV-B as in Example 1, vs stimulated controls, component concentrations (μg/ml) per sample
Protocol: This assay was conducted on Human Epidermal Keratinocyte cells (HaCaT) and was carried out in triplicates. After reaching the required confluency, the cells were treated with pre-prepared growth medium containing the test component(s) at a final volume of 200 μL/well. Growth medium without test component was used to prepare the blank samples. The cells were incubated for 24 hr. Then, the medium was replaced with PBS (containing the test component) and the cells were subjected to 25 mJ/cm^2 (Table 2) or 12.5 mJ/cm^2 (Table 3) UV-B irradiation. The flux was determined by an external […]. Immediately after irradiation, the PBS was aspirated, and the cells were further incubated with freshly prepared media incubated for 24 hr. at 37° C. with 5% CO2. After incubation, the conditioned medium of the different treatment groups was collected under standardized conditions and centrifuged at 250×g for 5 min to remove particulates. Clear supernatants were frozen at -70° C. until analyses. […] The percentage inhibition was determined by comparing IL-8 levels in the test samples with the IL-8 level in the stimulated controls.

[2] = system: UV-B induced secretion of prostaglandin E2 (PGE2); assay: UV-B induced secretion of PGE2 in keratinocyte HaCaT cells (ELISA); assay type: cell-based, Human; details: component concentrations (μg/ml) per sample
Protocol: This assay was conducted on Human Epidermal Keratinocyte cells (HaCaT) and was carried out in triplicates. After reaching the required confluency, the cells were treated with pre-prepared growth medium containing the test component(s) at a final volume of 200 μL/well. Growth medium without test component was used to prepare the blank samples. The cells were incubated for 24 hr. Then, the medium was replaced with PBS (containing the test component) and the cells were subjected to 25 mJ/cm^2 (Table 2) or 12.5 mJ/cm^2 (Table 3) UV-B irradiation. The flux was determined by an external […]. Immediately after irradiation, the PBS was aspirated, and the cells were further incubated with freshly prepared media incubated for 24 hr. at 37° C. with 5% CO2. After incubation, the conditioned medium of the different treatment groups was collected under standardized conditions and centrifuged at 250×g for 5 min to remove particulates. Clear supernatants were frozen at -70° C. until analyses. The UVB-induced cytokines secretion of PGE2 was measured by commercial ELISA, according to the manufacturer's instructions. The percentage inhibition was determined by comparing PGE2 levels in the test samples with PGE2 level in the stimulated controls. Example 1 was repeated in HaCaT cells, using the lower UV-B dosage (12.5 mJ/cm^2 flux). In addition, an extra test component was used (docosahexaenoic acid).

collagen production = details: skin organ cultures, inhibition of PGE2 synthesis; cited from earlier work
[3] = 25 mJ/cm^2 UV-B, 24 hr pre-incubation, vs stimulated controls
[4] = lower UV-B dosage 12.5 mJ/cm^2, vs stimulated controls

C=C(C)[C@@H]1CCC(C)=C[C@H]1c1c(O)cc(CCCCC)cc1O [Sample 1, Cannabidiol]
Inhibition (%) IL-8 [1]: −1% | Inhibition (%) PGE2 [2, 3]: 0% | Inhibition (%) PGE2 [2, 4]: −11%

C=C(C)[C@@H]1CCC(C)=C[C@H]1c1c(O)cc(CCCCC)cc1O [Sample 2, Cannabidiol]
Inhibition (%) IL-8 [1]: 3% | Inhibition (%) PGE2 [2, 3]: 17% | Inhibition (%) PGE2 [2, 4]: −8%

CC/C=C\C/C=C\C/C=C\C/C=C\C/C=C\CCCC(=O)O [Sample 3, eicosapentaenoic acid]
Inhibition (%) IL-8 [1]: −6% | Inhibition (%) PGE2 [2, 3]: −11% | Inhibition (%) PGE2 [2, 4]: −3%

CC/C=C\C/C=C\C/C=C\C/C=C\C/C=C\CCCC(=O)O [Sample 4, eicosapentaenoic acid]
Inhibition (%) IL-8 [1]: −16% | Inhibition (%) PGE2 [2, 3]: 1% | Inhibition (%) PGE2 [2, 4]: 5%

O=C(O)Cc1ccccc1Nc1c(Cl)cccc1Cl [diclofenac]
collagen production (collagen production): enhanced collagen production
